This is an account of results in patent US20250205372A1, “RADIOPHARMACEUTICAL COMPOSITIONS, SYNTHETIC METHODS, AND METHODS OF TREATMENT” (The Research Foundation for The State University of New York, priority 2022, published 2025).

What all share (format): physicochemical
Data set [1] can be described thus: Variable temperature mass spectrometry (VTMS): binding of the first second sphere water. As to conditions: gas phase. As to the method:
VTMS and CIVP: All experiments were carried out in a home-built quadrupole time-of-flight mass spectrometer described elsewhere (Waller, 2019). Briefly, the complexes were introduced into the gas phase via an electrospray ionization (ESI) source purged with dry air using PEEK tubing of 50 μm inner diameter. All samples were diluted to 50-100 μM in 50/50 acetonitrile/water from 500 μM stock solutions and an optimized flow rate of 0.6 μL/min was employed. The ESI voltages were typically 2050-2080 V, low enough to prevent sample degradation while still ensuring steady signal. Once generated, the ions were introduced into a vacuum system and stored in a room temperature […] trap. Ions were extracted from this trap and mass selected by a quadrupole mass filter (Extrel), then guided into a cryogenically cooled ion trap capable of operating in a temperature range of 310 K-3 K. For Variable temperature mass spectrometry (VTMS) measurements (Racow, 2019), a mixture of water and helium was introduced via a pulsed valve allowing the formation of hydrated complexes, if thermodynamically feasible. A fraction of ions was then extracted, at 10 Hz, into a reflectron time-of-flight (TOF) mass spectrometer to analyze the relative intensities of the resulting hydrates. The trap was cooled down from 310 K at a rate of ˜1 K/min and mass spectra were collected by summing 1000 scans at 10 K intervals in the cooling down period. The partial pressure of water was maintained between 4×10−8 to 2×10^−7 Torr as detected by a residual gas analyzer (Extorr). Vibrational spectra were recorded using a method known as Cryogenic Ion Vibrational Predissociation (CIVP) spectroscopy as described previously (Yang 2019). Briefly, a mixture of N2 and helium was seeded into the cryogenic ion trap, encouraging the formation of nitrogen adducts (so-called “tags”) typically between 45 K-48 K. Tagged complexes were extracted into the TOF and intersected by a tunable infrared laser pulse from a Nd:YAG pumped OPO/OPA system (LaserVision). The tagged ions absorb a single photon when the wavelength is resonant with a vibrational transition, resulting in the desorption of the tag from the ions. Fragment ion yields were subsequently quantified by a reflectron mass spectrometer. The ratio of fragment to tagged ions, corrected for the laser power, at each wavelength thus yields a linear absorption spectrum of the ions of interest that can be analyzed in the same way as atypical FTIR spectrum.
Data Analysis and Detailed Discussion. The variable temperature mass spectra and corresponding speciation curves of the protonated tripeptide+NOTA (4) and the Ga-tripeptide-NOTA complex (^natGa-4) are shown in FIGS. 71-75. At the highest temperature shown in both figures, no water adduct is observed. […] Similar values were found for the metal-free complex, further confirming that only second sphere hydration events were observed.

Data set [2] in a line: Cleavage assay for cold complexes: pH-dependent autolytic cleavage monitored by LCMS/analytical HPLC. The conditions noted are these: 80° C. and pH 4.5. How it is done:
Cleavage of the cold model complexes was observed over a range of physiological pH conditions, including pH values of 4.5, 5.5, 6.5, and 7.5. Aqueous buffer solutions were prepared using 10 mM sodium acetate (pH 4.5 and 5.5) or 10 mM HEPES (pH 6.5 and 7.5), which were subsequently adjusted to the desired pH using NaOH and/or HCl. An aliquot of the complex was placed in an aqueous solution of the desired pH and incubated for 48 hours at 80° C., monitored regularly via LCMS.

The nature of data set [3]: Temperature-dependent autolytic release from ^67Ga-radiolabeled model peptides (radioHPLC). As to the method:
^67Ga-citrate was purchased from Jubilant Radiopharma at an average specific activity of 205.0 MBq/mL. The ^67Ga-citrate solution was first converted to ^67GaCl3 using an established solid-phase extraction protocol (Pandy, 2021). The resulting average specific activity of the obtained ^67Ga-chloride solution used for solution radio-labelling was 80.5 MBq/mL. For radio-labeling of NOTA-based model peptides or compound 10, a 20 μL aliquot containing 4.5 MBq of ^67GaCl3 was added to the conjugate (10 nmol, 300 μL) in 10 mM of sodium acetate (NaOAc) buffer. The pH of the solution was adjusted to 5.0. Radiolabeling was completed after 20 minutes at room temperature. The radiolabeled conjugates were characterized with radio-HPLC.

Data set [4] in a line: Quantitation of the ^68Ga(8) product released from TG-10 resin over time.

“2,2′-(7-(2-((1-1-((2-(((S)-1-amino-3-(1H-indol-3-yl)-1-oxopropan-2-yl)amino)-2-oxoethyl)amino)-3-hydroxy-1-oxopropan-2-yl)amino)-2-oxoethyl)-1,4,7-triazonane-1,4-diyl)diacetic acid [Compound 4]”: in data set [1], the “ΔG (ΔG^298) for the binding of the first second sphere water” value was -6.74 ± 0.19 kcal/mol, the “ΔH for the binding of the first second sphere water” value is -13.2 ± 0.12 kcal/mol and the “ΔS for the binding of the first second sphere water” value is reported as −91.3 +/− 2.2 J/mol K.

“(S)-2,2′-(7-(2-((2-((2-((I-amino-3-(1H-indol-3-yl)-1-oxopropan-2-yl)amino)-2-oxoethyl)amino)-2-oxoethyl)amino)-2-oxoethyl)-1,4,7-triazonane-1,4-diyl)diacetic acid [Compound 3]”: the “autolytic release (analytical HPLC chromatograms)” value in data set [2] is recorded as “no autolytic release”.

Regarding “^67Gallium 2,2′,2″-(10-(2-((1-1-((2-(((S)-1-amino-3-(H-indol-3-yl)-1-oxopropan-2-yl)amino)-2-oxoethyl)amino)-3-hydroxy-1-oxopropan-2-yl)amino)-2-oxoethyl)-1,4,7,10-tetraazacyclododecane-1,4,7-triyl)triacetate [^67Ga-5]”, the “autolytic release (analytical radioHPLC chromatograms)” value in data set [3] (25° C.), in data set [3] (37° C.) and in data set [3] (80° C.) was “no autolytic release” each time.

As for “^67Gallium (S)-2,2′-(7-(2-((2-((2-((I-amino-3-(1H-indol-3-yl)-1-oxopropan-2-yl)amino)-2-oxoethyl)amino)-2-oxoethyl)amino)-2-oxoethyl)-1,4,7-triazonane-1,4-diyl)diacetate [^67Ga-3]”, the “autolytic release (analytical radioHPLC chromatograms)” value in data set [3] (25° C.) is reported as “no autolytic release”; in data set [3] (37° C.) it was “lack of fast autolytic release”.

In the case of “^68Gallium (((1S)-1-carboxy-5-(3-(naphthalen-2-yl)-2-((1r,4S)-4-((6-oxo-6-((4-((1,4,7-tris(carboxymethyl)-1,4,7-triazonan-2-yl)methyl)phenyl)amino)hexanamido)methyl)cyclohexane-1-carboxamido)propanamido)pentyl)carbamoyl)-L-glutamic acid triacetate [^68Ga(8)]”, the “Activity released per time” value in data set [4] (released from TG-10, 10 min) worked out at 14.2 ± 1.57%; in data set [4] (released from TG-10, 20 min), 17.9 ± 0.97%; in data set [4] (released from TG-10, 30 min), 18.9 ± 0.61%; in data set [4] (released from TG-10, 60 min) it was 15.4 ± 0.85%; in data set [4] (released from TG-10, 90 min), 11.5 ± 0.84%; in data set [4] (released from TG-10, 120 min), 9.2 ± 1.56%. The Cumulative released activity amounted to 14.2 ± 1.57% in data set [4] (released from TG-10, 10 min); 32.1 ± 0.60% in data set [4] (released from TG-10, 20 min); 50.9 ± 1.21% in data set [4] (released from TG-10, 30 min); 66.3 ± 0.36% in data set [4] (released from TG-10, 60 min); 77.8 ± 1.20% in data set [4] (released from TG-10, 90 min); 87.0 ± 2.76% in data set [4] (released from TG-10, 120 min). In addition, the Cumulative released activity in data set [4] (released from TG-10, last line of table, time not given) came out at 88.0%.

With “^natCopper 2,2′,2-(10-(2-(((R)-1-((2-(((S)-1-amino-3-(1H-indol-3-yl)-1-oxopropan-2-yl)amino)-2-oxoethyl)amino)-3-hydroxy-1-oxopropan-2-yl)amino)-2-oxoethyl)-1,4,7,10-tetraazacyclododecane-1,4,7-triyl)triacetate [^natCu-5]”, the “autolytic release (analytical HPLC chromatograms)” value in data set [2] is on record as “no autolytic release”.

In the case of “^natCopper 2,2′-(7-(2-((1-1-((2-(((S)-1-amino-3-(1H-indol-3-yl)-1-oxopropan-2-yl)amino)-2-oxoethyl)amino)-3-hydroxy-1-oxopropan-2-yl)amino)-2-oxoethyl)-1,4,7-triazonane-1,4-diyl)diacetate [^natCu-4]”, the “autolytic release (analytical HPLC chromatograms)” value in data set [2] is reported as “no autolytic release”.

Take “^natCopper (S)-2,2′-(7-(2-((2-((2-((1-amino-3-(1H-indol-3-yl)-1-oxopropan-2-yl)amino)-2-oxoethyl)amino)-2-oxoethyl)amino)-2-oxoethyl)-1,4,7-triazonane-1,4-diyl)diacetate [^natCu-3]”: in data set [2], the “autolytic release (analytical HPLC chromatograms)” value is “no autolytic release”.

In the case of “^natGallium 2,2′,2″-(10-(2-((1-1-((2-(((S)-1-amino-3-(1H-indol-3-yl)-1-oxopropan-2-yl)amino)-2-oxoethyl)amino)-3-hydroxy-1-oxopropan-2-yl)amino)-2-oxoethyl)-1,4,7,10-tetraazacyclododecane-1,4,7-triyl)triacetate [^natGa-5]”, the “autolytic release (analytical HPLC chromatograms)” value in data set [2] is given as “no autolytic release”.

As to “^natGallium 2,2′-(7-(2-((1-1-((2-(((S)-1-amino-3-(1H-indol-3-yl)-1-oxopropan-2-yl)amino)-2-oxoethyl)amino)-3-hydroxy-1-oxopropan-2-yl)amino)-2-oxoethyl)-1,4,7-triazonane-1,4-diyl)diacetate [^natGa-4]”, in data set [1], the “ΔG (ΔG^298) for the binding of the first second sphere water” value was -7.19 ± 0.645 kcal/mol, the “ΔH for the binding of the first second sphere water” value is -11.7 ± 0.621 kcal/mol and the “ΔS for the binding of the first second sphere water” value is −62.9 +/− 17.5 J/mol K.

“^natScandium 2,2′,2″-(10-(2-((1-1-((2-(((S)-1-amino-3-(1H-indol-3-yl)-1-oxopropan-2-yl)amino)-2-oxoethyl)amino)-3-hydroxy-1-oxopropan-2-yl)amino)-2-oxoethyl)-1,4,7,10-tetraazacyclododecane-1,4,7-triyl)triacetate [^natSc-5]”: the “autolytic release (analytical HPLC chromatograms)” value in data set [2] is “no autolytic release”.
